IC50 data for 16 compounds are collected here from patent publication US20250034135A1, “ANTI-APOPTOTIC PROTEIN BCL-2 INHIBITOR, PHARMACEUTICAL COMPOSITION AND USES THEREOF” (HANGZHOU HEALZEN THERAPEUTICS CO., LTD., priority 2021, published 2025).

A value given as a limit tells only on which side of the number the result lay.

As a reminder, the IC50 is the concentration needed to halve the response being measured.

The target of this experiment is BCL2 (Homo sapiens (Human), UniProt P10415). Put plainly: Molecular level activity test of anti-apoptotic protein BCL2 (HTRF, binding to Bim peptide). The note with it: HTRF, binding of BCL2 to Bim peptide; read-out: BCL2 nM (inhibitory activity, IC50). How it is done: The detection of the binding ability between anti-apoptotic protein BCL2 and pro-apoptotic protein Bim was performed using Homogeneous Time-Resolved Fluorescence technology. The reaction of this method occurred in a white shallow 384-well plate, with a total reaction volume of 10 μL. Specifically, it included 2 μL of the compound to be tested (2% DMSO), 4 μL His-tagged recombinant protein, and 4 μL Biotin-tagged BIM protein peptide. After 1 hour of reaction, 5 μL of each Anti-His and streptavidin-tagged XL665 antibody diluents diluted with a detection buffer were added. After incubating at room temperature for 4 hours, the values were read using the Envision multifunctional microplate reader to detect the effect of the compound to be tested on the binding ability of BCL2 to Bim protein peptides.
Chain of BCL2 (P10415 whole entry): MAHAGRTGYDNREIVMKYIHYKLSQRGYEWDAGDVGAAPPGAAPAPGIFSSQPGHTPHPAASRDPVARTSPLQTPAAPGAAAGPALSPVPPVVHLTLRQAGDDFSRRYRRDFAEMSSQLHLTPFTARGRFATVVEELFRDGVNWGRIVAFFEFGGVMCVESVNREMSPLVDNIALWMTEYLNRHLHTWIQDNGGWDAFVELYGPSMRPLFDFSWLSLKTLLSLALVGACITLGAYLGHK
For orientation: In TR-FRET formats the signal depends on donor and acceptor labels being close together.
On to `CC(C)c1ccccc1C1CN(C2CCOCC2)CCN1C1CC2(C1)CN(c1ccc(C(=O)NS(=O)(=O)c3cc([N+](=O)[O-])c(NCC4(F)CCN(C(C)C)CC4)c4[nH]cnc34)c(Oc3cnc4[nH]ccc4c3)c1)C2` (stereo not shown) [compound 044, 2-((1H-pyrrolo[2,3-b]pyrid-5-yl)oxy)-N-((7-(((4-fluoro-1-isopropylpiperid-4-yl)methyl)amino)-6-nitro-1H-benzo[d]imidazol-4-yl)sulfonyl)-4-(6-(2-(2-isopropylphenyl)-4-(tetrahydro-2H-pyran-4-yl)piperazin-1-yl)-2-azaspiro[3.3]hept-2-yl)benzamide], for which the IC50 was under 10 nM.
To `COc1ccc(CN2CCN(C3CC4(CCN(c5ccc(C(=O)NS(=O)(=O)c6cc([N+](=O)[O-])c(NC[C@H]7CC[C@](C)(O)CC7)c7[nH]cnc67)c(Oc6cnc7[nH]ccc7c6)c5)CC4)C3)C(c3ccccc3C(C)C)C2)cn1` (stereo partly shown) [compound 045, 2-((1H-pyrrolo[2,3-b]pyrid-5-yl)oxy)-N-((7-((((1r,4r)-4-hydroxy-4-methylcyclohexyl)methyl)amino)-6-nitro-1H-benzo[d]imidazol-4-yl)sulfonyl)-4-(2-(2-(2-isopropylphenyl)-4-((6-methoxypyrid-3-yl)methyl)piperazin-1-yl)-7-azaspiro[3.5]non-7-yl)benzamide] belongs under 10 nM; to `COc1ccc(CN2CCN(C3CC4(C3)CN(c3ccc(C(=O)NS(=O)(=O)c5cc([N+](=O)[O-])c(NCC6(F)CCN(C(C)C)CC6)c6[nH]cnc56)c(Oc5cnc6[nH]ccc6c5)c3)C4)C(c3ccccc3C(C)C)C2)cc1` (stereo not shown) [compound 046, 2-((1H-pyrrolo[2,3-b]pyrid-5-yl)oxy)-N-((7-(((4-fluoro-1-isopropylpiperid-4-yl)methyl)amino)-6-nitro-1H-benzo[d]imidazol-4-yl)sulfonyl)-4-(6-(2-(2-isopropylphenyl)-4-(4-methoxybenzyl)piperazin-1-yl)-2-azaspiro[3.3]hept-2-yl)benzamide], under 10 nM; to `COc1ccc(CN2CCN(C3CC4(CCN(c5ccc(C(=O)NS(=O)(=O)c6cc([N+](=O)[O-])c(NCC7(F)CCOCC7)c7[nH]cnc67)c(Oc6cnc7[nH]ccc7c6)c5)CC4)C3)C(c3ccccc3C(C)C)C2)cc1` (stereo not shown) [compound 047, 2-((1H-pyrrolo[2,3-b]pyrid-5-yl)oxy)-N-((7-(((4-fluorotetrahydro-2H-pyran-4-yl)methyl)amino)-6-nitro-1H-benzo[d]imidazol-4-yl)sulfonyl)-4-(2-(2-(2-isopropylphenyl)-4-(4-methoxybenzyl)piperazin-1-yl)-7-azaspiro[3.5]non-7-yl)benzamide], under 10 nM.
For the compound `COc1ccc(CN2CCN(C3CC4(CCN(c5ccc(C(=O)NS(=O)(=O)c6cc([N+](=O)[O-])c(NCC7(F)CCN(C(C)C)CC7)c7[nH]cnc67)c(Oc6cnc7[nH]ccc7c6)c5)CC4)C3)C(c3ccccc3C(C)C)C2)cc1` (stereo not shown) [compound 048, 2-((1H-pyrrolo[2,3-b]pyrid-5-yl)oxy)-N-((7-(((4-fluoro-1-isopropylpiperid-4-yl)methyl)amino)-6-nitro-1H-benzo[d]imidazol-4-yl)sulfonyl)-4-(2-(2-(2-isopropylphenyl)-4-(4-methoxybenzyl)piperazin-1-yl)-7-azaspiro[3.5]non-7-yl)benzamide], the IC50 was under 10 nM.
To `COc1ccc(CN2CCN(C3CC4(CCN(c5ccc(C(=O)NS(=O)(=O)c6cc([N+](=O)[O-])c(NC[C@H]7CC[C@](C)(O)CC7)c7[nH]cnc67)c(Oc6cnc7[nH]cc(F)c7c6)c5)CC4)C3)C(c3ccccc3C(C)C)C2)cn1` (stereo partly shown) [compound 049, 2-((3-fluoro-1H-pyrrolo[2,3-b]pyrid-5-yl)oxy)-N-((7-((((1r,4r)-4-hydroxy-4-methylcyclohexyl)methyl)amino)-6-nitro-1H-benzo[d]imidazol-4-yl)sulfonyl)-4-(2-(2-(2-isopropylphenyl)-4-((6-methoxypyrid-3-yl)methyl)piperazin-1-yl)-7-azaspiro[3.5]non-7-yl)benzamide] belongs under 10 nM.
To `COc1ccc(CN2CCN(C3CC4(CCN(c5ccc(C(=O)NS(=O)(=O)c6cc([N+](=O)[O-])c(NCC7(F)CCN(C(C)C)CC7)c7[nH]cnc67)c(Oc6cnc7[nH]cc(F)c7c6)c5)CC4)C3)C(c3ccccc3C(C)C)C2)cc1` (stereo not shown) [compound 050] belongs under 10 nM; to `CC(C)c1ccccc1C1CN(C2CCOCC2)CCN1C1CC2(CCN(c3cc(Oc4cnc5[nH]ccc5c4)c(C(=O)NS(=O)(=O)c4ccc(NC[C@H]5CC[C@](C)(O)CC5)c([N+](=O)[O-])c4)cn3)CC2)C1` (stereo partly shown) [compound 051, 4-((1H-pyrrolo[2,3-b]pyrid-5-yl)oxy)-N-((4-((((1r,4r)-4-hydroxy-4-methylcyclohexyl)methyl)amino)-3-nitrophenyl)sulfonyl)-6-(2-(2-(2-isopropylphenyl)-4-(tetrahydro-2H-pyran-4-yl)piperazin-1-yl)-7-azaspiro[3.5]non-7-yl) nicotinamide], under 10 nM.
Next, `CC(C)c1ccccc1C1CN(C2CCOCC2)CCN1C1CC2(C1)CN(c1cc(Oc3cnc4[nH]ccc4c3)c(C(=O)NS(=O)(=O)c3ccc(NC[C@H]4CC[C@](C)(O)CC4)c([N+](=O)[O-])c3)cn1)C2` (stereo partly shown) [compound 052, 4-((1H-pyrrolo[2,3-b]pyrid-5-yl)oxy)-N-((4-((((1r,4r)-4-hydroxy-4-methylcyclohexyl)methyl)amino)-3-nitrophenyl)sulfonyl)-6-(6-(2-(2-isopropylphenyl)-4-(tetrahydro-2H-pyran-4-yl)piperazin-1-yl)-2-azaspiro[3.3]hept-2-yl) nicotinamide]: under 10 nM.
For `COc1ccc(CN2CCN(C3CC4(C3)CN(c3cc(Oc5cnc6[nH]ccc6c5)c(C(=O)NS(=O)(=O)c5ccc(NCC6(F)CCN(C7COC7)CC6)c([N+](=O)[O-])c5)cn3)C4)C(c3ccccc3C(C)C)C2)cc1` (stereo not shown) [compound 054], the IC50 was under 10 nM.
To `COc1ccc(CN2CCN(C3CC4(CCN(c5cc(Oc6cnc7[nH]ccc7c6)c(C(=O)NS(=O)(=O)c6ccc(NC[C@H]7CC[C@](C)(O)CC7)c([N+](=O)[O-])c6)cc5F)CC4)C3)C(c3ccccc3C(C)C)C2)cc1` (stereo partly shown) [compound 055, 2-((1H-pyrrolo[2,3-b]pyrid-5-yl)oxy)-5-fluoro-N-((4-((((1r,4r)-4-hydroxy-4-methylcyclohexyl)methyl)amino)-3-nitrophenyl)sulfonyl)-4-(2-(2-(2-isopropylphenyl)-4-(4-methoxybenzyl)piperazin-1-yl)-7-azaspiro[3.5]non-7-yl)benzamide] belongs under 10 nM; to `COc1ccc(CN2CCN(C3CC4(C3)CN(c3cc(Oc5cnc6[nH]ccc6c5)c(C(=O)NS(=O)(=O)c5ccc(NC[C@H]6CC[C@](C)(O)CC6)c([N+](=O)[O-])c5)cc3F)C4)C(c3ccccc3C(C)C)C2)cc1` (stereo partly shown) [compound 056, 2-((1H-pyrrolo[2,3-b]pyrid-5-yl)oxy)-5-fluoro-N-((4-((((1r,4r)-4-hydroxy-4-methylcyclohexyl)methyl)amino)-3-nitrophenyl)sulfonyl)-4-(6-(2-(2-isopropylphenyl)-4-(4-methoxybenzyl)piperazin-1-yl)-2-azaspiro[3.3]hept-2-yl)benzamide], under 10 nM.
Regarding `CC(C)c1ccccc1C1CN(C2CCOCC2)CCN1C1CC2(CCN(c3cc(Oc4cnc5[nH]cc(F)c5c4)c(C(=O)NS(=O)(=O)c4ccc(NC[C@H]5CC[C@](C)(O)CC5)c([N+](=O)[O-])c4)cn3)CC2)C1` (stereo partly shown) [compound 059, 4-((3-fluoro-1H-pyrrolo[2,3-b]pyrid-5-yl)oxy)-N-((4-((((1r,4r)-4-hydroxy-4-methylcyclohexyl)methyl)amino)-3-nitrophenyl)sulfonyl)-6-(2-(2-(2-isopropylphenyl)-4-(tetrahydro-2H-pyran-4-yl)piperazin-1-yl)-7-azaspiro[3.5]non-7-yl) nicotinamide], the IC50 was under 10 nM.
Next, `COc1ccc(CN2CCN(C3CC4(CCN(c5cc(Oc6cnc7[nH]cc(F)c7c6)c(C(=O)NS(=O)(=O)c6ccc(NC[C@H]7CC[C@](C)(O)CC7)c([N+](=O)[O-])c6)cc5F)CC4)C3)C(c3ccccc3C(C)C)C2)cc1` (stereo partly shown) [compound 060, 5-fluoro-2-((3-fluoro-1H-pyrrolo[2,3-b]pyrid-5-yl)oxy)-N-((4-((((1r,4r)-4-hydroxy-4-methylcyclohexyl)methyl)amino)-3-nitrophenyl)sulfonyl)-4-(2-(2-(2-isopropylphenyl)-4-(4-methoxybenzyl)piperazin-1-yl)-7-azaspiro[3.5]non-7-yl)benzamide]: under 10 nM; `COc1ccc(CN2CCN(C3CC4(CCN(c5cc(Oc6cnc7[nH]cc(F)c7c6)c(C(=O)NS(=O)(=O)c6ccc(NCC7(F)CCN(C(C)C)CC7)c([N+](=O)[O-])c6)cn5)CC4)C3)C(c3ccccc3C(C)C)C2)cc1` (stereo not shown) [compound 061, N-((4-(((4-fluoro-1-isopropylpiperid-4-yl)methyl)amino)-3-nitrophenyl)sulfonyl)-4-((3-fluoro-1H-pyrrolo[2,3-b]pyrid-5-yl)oxy)-6-(2-(2-(2-isopropylphenyl)-4-(4-methoxybenzyl)piperazin-1-yl)-7-azaspiro[3.5]non-7-yl) nicotinamide]: under 10 nM; `COc1ccc(CN2CCN(C3CC4(CCN(c5cc(Oc6cnc7[nH]ccc7c6)c(C(=O)NS(=O)(=O)c6ccc(NCC7CCOCC7)c([N+](=O)[O-])c6)cc5F)CC4)C3)C(c3ccccc3C(C)C)C2)cc1` (stereo not shown) [compound 064, 2-((1H-pyrrolo[2,3-b]pyrid-5-yl)oxy)-5-fluoro-4-(2-(2-(2-isopropylphenyl)-4-(4-methoxybenzyl)piperazin-1-yl)-7-azaspiro[3.5]non-7-yl)-N-((3-nitro-4-(((tetrahydro-2H-pyran-4-yl)methyl)amino)phenyl)sulfonyl)benzamide]: under 10 nM.
